Format in all cases: biochemical
In assay [1] the target is KAT7+JADE1+EAF6+ING5 4 protein complex (Homo sapiens (Human), UniProt O95251). Description: KAT7 JADE1 assay (SAMDI-MS acetylation of H3 1-21 peptide). As to conditions: Morrison equation fit; replicate number in parentheses; read-out: KAT7 JADE1 Ki (nM) (replicate number).
A further assay addresses KAT5 Full length enzyme (Homo sapiens (Human), UniProt Q92993). The experiment in a line: KAT5 assay (SAMDI-MS acetylation of H4 1-21 peptide). As to conditions: Morrison equation fit; replicate number in parentheses; read-out: KAT5 Ki (nM) (replicate number).
The next assay has as its target KAT8 Full length enzyme (Homo sapiens (Human), UniProt Q9H7Z6). Description: KAT8 assay (SAMDI-MS acetylation of H3 1-21 peptide). The note with it: Morrison equation fit; replicate number in parentheses; read-out: KAT8 Ki (nM) (replicate number).
Assay [2] addresses KAT7+BRPF1+EAF6+ING5 4 protein complex (Homo sapiens (Human), UniProt O95251). The experiment in a line: KAT7 BRPF1 assay (SAMDI-MS acetylation of H3 1-21 peptide). As to conditions: Morrison equation fit; replicate number in parentheses.
The target in another assay is KAT6A Full length enzyme (Homo sapiens (Human), UniProt Q92794). Description: KAT6A assay (SAMDI-MS acetylation of H3 1-21 peptide). The note with it: Morrison equation fit; replicate number in parentheses; read-out: KAT6A Ki (nM) (replicate number).
KAT6A Full length enzyme, sequence (Q92794 other isoform, or with tags, fused parts or gaps): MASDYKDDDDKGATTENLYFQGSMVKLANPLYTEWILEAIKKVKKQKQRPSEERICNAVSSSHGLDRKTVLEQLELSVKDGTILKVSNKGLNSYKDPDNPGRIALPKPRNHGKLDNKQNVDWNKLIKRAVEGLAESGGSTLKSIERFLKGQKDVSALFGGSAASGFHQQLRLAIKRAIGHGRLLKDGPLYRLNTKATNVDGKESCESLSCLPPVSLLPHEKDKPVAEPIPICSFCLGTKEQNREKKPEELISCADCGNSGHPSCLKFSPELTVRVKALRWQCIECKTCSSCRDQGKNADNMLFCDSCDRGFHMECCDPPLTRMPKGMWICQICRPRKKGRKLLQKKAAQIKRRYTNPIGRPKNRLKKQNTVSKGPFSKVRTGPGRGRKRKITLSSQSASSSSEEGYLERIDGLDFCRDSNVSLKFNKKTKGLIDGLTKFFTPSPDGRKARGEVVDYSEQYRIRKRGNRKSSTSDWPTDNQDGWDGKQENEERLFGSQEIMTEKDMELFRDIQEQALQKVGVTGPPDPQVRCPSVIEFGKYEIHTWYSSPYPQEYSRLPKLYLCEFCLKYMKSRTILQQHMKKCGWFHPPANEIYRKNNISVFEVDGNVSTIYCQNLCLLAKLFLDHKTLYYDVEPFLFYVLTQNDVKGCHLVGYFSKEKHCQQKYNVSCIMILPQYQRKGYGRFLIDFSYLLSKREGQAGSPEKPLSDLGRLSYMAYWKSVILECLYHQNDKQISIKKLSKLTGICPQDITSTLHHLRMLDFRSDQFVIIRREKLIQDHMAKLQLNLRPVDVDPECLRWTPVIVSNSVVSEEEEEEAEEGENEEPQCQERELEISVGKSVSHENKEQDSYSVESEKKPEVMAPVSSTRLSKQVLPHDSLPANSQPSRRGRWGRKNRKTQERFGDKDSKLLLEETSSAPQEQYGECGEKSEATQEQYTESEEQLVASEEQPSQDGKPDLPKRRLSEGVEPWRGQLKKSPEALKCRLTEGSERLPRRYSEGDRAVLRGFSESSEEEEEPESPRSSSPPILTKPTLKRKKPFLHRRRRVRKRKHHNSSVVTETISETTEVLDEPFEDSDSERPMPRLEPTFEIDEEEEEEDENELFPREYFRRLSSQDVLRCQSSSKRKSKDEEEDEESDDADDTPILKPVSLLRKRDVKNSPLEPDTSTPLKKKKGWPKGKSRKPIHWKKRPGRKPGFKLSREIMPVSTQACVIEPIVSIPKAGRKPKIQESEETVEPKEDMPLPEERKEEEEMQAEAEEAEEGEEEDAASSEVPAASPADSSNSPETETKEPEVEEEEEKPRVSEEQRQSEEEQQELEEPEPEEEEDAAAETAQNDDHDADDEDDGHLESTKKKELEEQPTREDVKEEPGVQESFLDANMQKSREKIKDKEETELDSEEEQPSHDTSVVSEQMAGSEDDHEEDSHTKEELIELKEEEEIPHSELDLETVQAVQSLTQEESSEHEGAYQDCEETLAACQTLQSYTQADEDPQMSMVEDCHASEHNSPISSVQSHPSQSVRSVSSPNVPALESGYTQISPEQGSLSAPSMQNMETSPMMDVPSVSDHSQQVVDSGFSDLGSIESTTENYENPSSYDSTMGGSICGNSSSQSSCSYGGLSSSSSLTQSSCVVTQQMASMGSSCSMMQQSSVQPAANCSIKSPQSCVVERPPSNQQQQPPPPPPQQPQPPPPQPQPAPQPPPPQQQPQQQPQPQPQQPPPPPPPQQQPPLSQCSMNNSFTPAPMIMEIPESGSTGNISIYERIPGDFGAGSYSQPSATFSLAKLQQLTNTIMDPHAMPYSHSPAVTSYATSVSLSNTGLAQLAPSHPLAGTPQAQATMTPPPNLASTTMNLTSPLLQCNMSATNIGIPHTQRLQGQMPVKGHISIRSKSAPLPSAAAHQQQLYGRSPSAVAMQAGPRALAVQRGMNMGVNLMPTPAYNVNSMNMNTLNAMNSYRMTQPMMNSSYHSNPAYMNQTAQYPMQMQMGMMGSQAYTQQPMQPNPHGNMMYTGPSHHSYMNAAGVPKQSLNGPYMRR

Molecules are shown by their SMILES.

KAT8 Full length enzyme, sequence (Q9H7Z6 whole entry): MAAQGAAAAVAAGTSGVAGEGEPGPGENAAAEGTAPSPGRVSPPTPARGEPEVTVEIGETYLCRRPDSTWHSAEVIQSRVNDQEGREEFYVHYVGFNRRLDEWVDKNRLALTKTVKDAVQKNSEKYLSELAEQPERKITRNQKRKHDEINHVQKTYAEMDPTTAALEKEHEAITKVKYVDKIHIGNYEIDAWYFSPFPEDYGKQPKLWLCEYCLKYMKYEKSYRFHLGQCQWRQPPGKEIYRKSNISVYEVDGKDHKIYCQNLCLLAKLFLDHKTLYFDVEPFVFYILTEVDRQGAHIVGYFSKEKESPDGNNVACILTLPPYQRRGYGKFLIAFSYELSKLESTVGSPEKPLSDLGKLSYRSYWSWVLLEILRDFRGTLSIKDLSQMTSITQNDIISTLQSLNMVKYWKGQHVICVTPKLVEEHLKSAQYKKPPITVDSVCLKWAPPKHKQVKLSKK
KAT5 Full length enzyme, sequence (Q92993 whole entry): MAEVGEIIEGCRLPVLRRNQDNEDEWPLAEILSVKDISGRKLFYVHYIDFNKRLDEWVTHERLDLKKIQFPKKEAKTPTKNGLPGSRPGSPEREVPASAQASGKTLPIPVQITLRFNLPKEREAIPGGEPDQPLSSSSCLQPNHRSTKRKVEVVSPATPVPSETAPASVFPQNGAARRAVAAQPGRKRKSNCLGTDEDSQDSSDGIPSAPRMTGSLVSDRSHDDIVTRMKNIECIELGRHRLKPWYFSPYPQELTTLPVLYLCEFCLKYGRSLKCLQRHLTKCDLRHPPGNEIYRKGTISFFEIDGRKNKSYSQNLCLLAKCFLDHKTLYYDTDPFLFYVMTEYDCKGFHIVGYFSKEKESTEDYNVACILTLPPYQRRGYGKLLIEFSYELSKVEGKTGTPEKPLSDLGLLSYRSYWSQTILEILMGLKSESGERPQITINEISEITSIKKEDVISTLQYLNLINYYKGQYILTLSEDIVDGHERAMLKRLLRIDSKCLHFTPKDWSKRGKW

One may read the Ki as the equilibrium dissociation constant of an inhibitor or competing ligand from its target. Consider `COc1cc2c(NS(=O)(=O)c3c(OC)cc(C4CCCN4C)cc3OC)noc2cc1Nc1cc(C2CC2)n[nH]1` (racemic) [Example 154, N-{6-[(3-cyclopropyl-1H-pyrazol-5-yl)amino]-5-methoxy-1,2-benzoxazol-3-yl}-2,6-dimethoxy-4-(1-methylpyrrolidin-2-yl)benzene-1-sulfonamide], for which the Ki in assay [1] worked out at 15.3 nM; at KAT5 Full length enzyme it was 88.3 nM; on KAT8 Full length enzyme, 2140 nM; in assay [2] it was 7.8 nM; on KAT6A Full length enzyme it was 2 nM.

As to `COc1cc2c(NS(=O)(=O)c3c(OC)cccc3OC3CC3)noc2cc1Nc1cc[nH]n1` [Example 34, 2-(cyclopropyloxy)-6-methoxy-N-{5-methoxy-6-[(1H-pyrazol-3-yl)amino]-1,2-benzoxazol-3-yl}benzene-1-sulfonamide], the inhibitory constant (Ki) is 51.8 nM in assay [1]; 365 nM at KAT5 Full length enzyme; 1240 nM at KAT8 Full length enzyme; 11.2 nM in assay [2]; 0.4 nM at KAT6A Full length enzyme.

In the case of `COc1cccc(OC)c1S(=O)(=O)Nc1noc2cc(Nc3cc(C4CC4)n[nH]3)c(F)c(OC)c12` [Example 71, N-{6-[(3-cyclopropyl-1H-pyrazol-5-yl)amino]-5-fluoro-4-methoxy-1,2-benzoxazol-3-yl}-2,6-dimethoxybenzene-1-sulfonamide], the Ki was 20.9 nM in assay [1]; 591 nM on KAT5 Full length enzyme; 4050 nM at KAT8 Full length enzyme; 2.2 nM in assay [2]; 2.6 nM on KAT6A Full length enzyme.

For the compound `CCc1cc(Nc2cc3onc(NS(=O)(=O)c4c(OC)cccc4OC)c3c(OC)c2F)[nH]n1` [Example 72, N-{6-[(3-ethyl-1H-pyrazol-5-yl)amino]-5-fluoro-4-methoxy-1,2-benzoxazol-3-yl}-2,6-dimethoxybenzene-1-sulfonamide], the Ki in assay [1] was 21.5 nM; on KAT5 Full length enzyme, 1010 nM; at KAT8 Full length enzyme, greater than 6970 nM; in assay [2], 1.1 nM; at KAT6A Full length enzyme it was 4.6 nM.

As for `COc1cc2c(NS(=O)(=O)c3c(OC)cccc3OC)noc2cc1Nc1cc(Cc2ccccc2)n[nH]1` [Example 109, N-{6-[(3-benzyl-1H-pyrazol-5-yl)amino]-5-methoxy-1,2-benzoxazol-3-yl}-2,6-dimethoxybenzene-1-sulfonamide], the inhibition constant Ki in assay [1] was 18.5 nM; on KAT5 Full length enzyme, 326 nM; on KAT8 Full length enzyme it was 2930 nM; in assay [2], 5 nM; on KAT6A Full length enzyme, 0.8 nM.

Consider `COc1cc2c(NS(=O)(=O)c3c(OC)cccc3OC)noc2cc1Nc1cc(CC(C)C)n[nH]1` [Example 114, 2,6-dimethoxy-N-(5-methoxy-6-{[3-(2-methylpropyl)-1H-pyrazol-5-yl]amino}-1,2-benzoxazol-3-yl)benzene-1-sulfonamide], for which the Ki in assay [1] was 22 nM; on KAT5 Full length enzyme it was 312 nM; at KAT8 Full length enzyme, 3360 nM; in assay [2], 2.1 nM; at KAT6A Full length enzyme, 1.3 nM.

As for `COc1cc2c(NS(=O)(=O)c3c(OC)cc(-c4cscn4)cc3OC)noc2cc1Nc1cc(C2CC2)n[nH]1` [Example 121, N-{6-[(3-cyclopropyl-1H-pyrazol-5-yl)amino]-5-methoxy-1,2-benzoxazol-3-yl}-2,6-dimethoxy-4-(1,3-thiazol-4-yl)benzene-1-sulfonamide], the Ki was 8.9 nM in assay [1]; 106 nM on KAT5 Full length enzyme; 1120 nM on KAT8 Full length enzyme; 2.1 nM in assay [2]; 0.7 nM on KAT6A Full length enzyme.

As to `COc1cc2c(NS(=O)(=O)c3c(OC)cc(-c4ccn(C)n4)cc3OC)noc2cc1Nc1cc(C2CC2)n[nH]1` [Example 122, N-{6-[(3-cyclopropyl-1H-pyrazol-5-yl)amino]-5-methoxy-1,2-benzoxazol-3-yl}-2,6-dimethoxy-4-(1-methyl-1H-pyrazol-3-yl)benzene-1-sulfonamide], the Ki in assay [1] was 3 nM; at KAT5 Full length enzyme, 45.3 nM; at KAT8 Full length enzyme, 395 nM; in assay [2] it was 1.2 nM; at KAT6A Full length enzyme, 0.3 nM.
